# Biological target: T1, Jmjd4 (Homo sapiens, UniProt Q9H9V9)
# T1 construct: recombinant from E. coli, Ni-NTA purified
# T1 sequence (Q9H9V9 1-417): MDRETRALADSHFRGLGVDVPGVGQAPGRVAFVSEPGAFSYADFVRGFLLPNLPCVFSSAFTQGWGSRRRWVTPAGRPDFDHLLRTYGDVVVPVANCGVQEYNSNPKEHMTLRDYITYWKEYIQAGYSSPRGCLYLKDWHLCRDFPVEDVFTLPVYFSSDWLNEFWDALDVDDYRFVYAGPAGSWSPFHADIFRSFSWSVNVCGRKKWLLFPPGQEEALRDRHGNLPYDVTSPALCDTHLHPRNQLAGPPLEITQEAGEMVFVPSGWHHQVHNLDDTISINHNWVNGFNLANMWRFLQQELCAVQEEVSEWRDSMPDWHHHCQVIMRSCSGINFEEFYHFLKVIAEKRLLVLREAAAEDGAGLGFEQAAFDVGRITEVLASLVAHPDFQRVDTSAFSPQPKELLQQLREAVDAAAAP
# Assay: in vitro hydroxylation of recombinant eRF1 K63
# Type: biochemical
# Details: eRF1 as prime substrate; Fe(II), 2OG; competitive with 2OG (stated for 2OG oxygenases in general)
compound,measurement,value
O=C(O)CNC(=O)C(=O)O [NOG],in vitro hydroxylation of recombinant eRF1 K63,"eRF1 K63 hydroxylation was significantly impaired by a 2OG competitive inhibitor (NOG, N-Oxalylglycine)"

# Source: publication PMC3991326, “Optimal Translational Termination Requires C4 Lysyl Hydroxylation of eRF1” (Molecular Cell, 2014)
